In general, EC50 refers to the concentration giving half of the maximal effect.

Series [1] deals with CD4+ or CD8+ primary T cells. Briefly: T cell activation, CD69 expression on CD4+ or CD8+ primary T cells. It is filed as cell-based, human. To be noted: 1 μM, 24 h, compared to prostratin and PEP005. On the procedure:
(§1) The amount of intracellular HIV-1 p24 and the active form of caspase-3 were determined by flow cytometry, as previously described ([Matsuda et al., 2015], [2019]). In brief, ACH-2 and U1 cells (2.5 × 10^5 cells/ml) were fixed with 1% paraformaldehyde/PBS for 20 min and permeabilized with Flow Cytometry Perm Buffer (TONBO Biosciences, San Diego, CA, United States). After 5 min of incubation at room temperature, the cells were stained with FITC anti-HIV-1 p24 (24-4) monoclonal antibody (mAb; Santa Cruz Biotechnology, Dallas, TX, United States) or Alexa Fluor 647-conjugated anti-active caspase-3 (C92-605) mAb (BD Pharmingen, San Diego, CA, United States) for 30 min on ice. For T cell activation and exhaustion marker staining, PBMCs from healthy donors separated by the above density gradient centrifugation method were incubated with fixable viability stain Ghost Dye 780 (TONBO Biosciences) for 30 min on ice. […] Next, the cells were analyzed using BD FACSVerse (BD Biosciences). […] The collected data were analyzed using FlowJo software (Tree Star, San Carlos, CA, United States).

In series [2] the test system is CD8+PD1+CD38+ primary T cells. Nature of the series: Immune exhaustion markers, CD8+PD1+CD38+ primary T cells. It is filed as cell-based, human. Conditions: PBMCs from healthy donors, 24 h. On the procedure: The amount of intracellular HIV-1 p24 and the active form of caspase-3 were determined by flow cytometry, as previously described ([Matsuda et al., 2015], [2019]). In brief, ACH-2 and U1 cells (2.5 × 10^5 cells/ml) were fixed with 1% paraformaldehyde/PBS for 20 min and permeabilized with Flow Cytometry Perm Buffer (TONBO Biosciences, San Diego, CA, United States). After 5 min of incubation at room temperature, the cells were stained with FITC anti-HIV-1 p24 (24-4) monoclonal antibody (mAb; Santa Cruz Biotechnology, Dallas, TX, United States) or Alexa Fluor 647-conjugated anti-active caspase-3 (C92-605) mAb (BD Pharmingen, San Diego, CA, United States) for 30 min on ice. For T cell activation and exhaustion marker staining, PBMCs from healthy donors separated by the above density gradient centrifugation method were incubated with fixable viability stain Ghost Dye 780 (TONBO Biosciences) for 30 min on ice. The cells were then stained with Brilliant Violet 510 anti-human CD3 (UCHT1) mAb (BioLegend), FITC anti-human CD4 (RPA-T4) mAb (TONBO Biosciences), PE-Cy7 anti-human CD8a (RPA-T8) mAb (TONBO Biosciences), PerCP-Cy5.5 anti-human CD38 (HB-7) mAb (BioLegend), PE anti-human CD69 (FN50) mAb (BioLegend), or Alexa Fluor 647 anti-human CD279/PD-1 (EH12.1) mAb (BD Biosciences, San Jose, CA, United States) for 30 min on ice. Next, the cells were analyzed using BD FACSVerse (BD Biosciences). In the analysis, unstained cells were used as a negative control to set the gating for each experiment. The collected data were analyzed using FlowJo software (Tree Star, San Carlos, CA, United States).

The subject of series [3] is HIV-1 latently infected ACH-2 cells. Nature of the series: HIV-1 latency reversal, p24 antigen in supernatant, ACH-2 cells. Conditions: Human immunodeficiency virus 1, ACH-2, 48 h. It is filed as cell-based. The method, then:
The reactivation of HIV-1 from latently infected cells was determined by intracellular p24 protein expression and quantification of p24 antigen in the supernatant (ACH-2 and U1 cells), or by changes in intracellular green fluorescent protein (GFP) expression (J-Lat 10.6 cells). J-Lat ([Jordan et al., 2003]), ACH-2, or U1 cells (5 × 10^5 cells/ml) were seeded in 96-well plates and incubated with different drug concentrations for 24 h to collect the cells. The supernatant was collected after 48 h. The increase in supernatant p24 antigen levels was measured using a Lumipulse G1200 (FUJIREBIO, Tokyo, Japan). J-Lat cells (5 × 10^5 cells/ml) were placed in 48-well plates and incubated with different drug concentrations for 24 h. Intracellular p24 protein expression and GFP-positive cells were analyzed by flow cytometry.

Another series deals with U1 cells. Nature of the series: Active caspase-3 by flow cytometry in U1 cells. It is filed as cell-based. To be noted: 10 µM, 24 h. On the procedure:
as §1
Background: A flow cytometer gives signals particle by particle.

A further series deals with A3.01 cells. Nature of the series: Active caspase-3 by flow cytometry in A3.01 cells. Format: cell-based. Conditions: 10 μM, 24 h.
Another series deals with BALB/c mice. Briefly: In vivo acute toxicity (24 h) in BALB/c mice. Conditions: intraperitoneal, 100 μg/kg–10 mg/kg. The source says: BALB/c mice were purchased from Charles River Laboratories Japan, Inc. (Yokohama, Japan). Female mice at 5 weeks of age were used for the experiments. The mice were housed and monitored in our animal research facility according to the institutional guidelines. All experimental procedures and protocols were approved by the Institutional Animal Care and Use Committee of Kumamoto University.

The next series deals with J-Lat 10.6 cells. It is filed as cell-based, HIV-1. On the procedure:
The reactivation of HIV-1 from latently infected cells was determined by intracellular p24 protein expression and quantification of p24 antigen in the supernatant (ACH-2 and U1 cells), or by changes in intracellular green fluorescent protein (GFP) expression (J-Lat 10.6 cells). […] The supernatant was collected after 48 h. The increase in supernatant p24 antigen levels was measured using a Lumipulse G1200 (FUJIREBIO, Tokyo, Japan). […] Intracellular p24 protein expression and GFP-positive cells were analyzed by flow cytometry.
Differences between groups were analyzed for statistical significance using unpaired t-tests. Statistical significance was set at p < 0.05. Statistical analyses were performed using GraphPad Prism version 8 (GraphPad Software, La Jolla, CA, United States). CompuSyn software, based on the quantitative analysis of dose-effect relationships between multiple drugs by Chou and Talalay, was utilized to determine the synergism or antagonism of drug combinations ([Chou and Talalay, 1984]). To confirm synergy, this software calculates combination index (CI) values, which further assist in determining the nature of the combination compared to single drug effects. A CI value <1 indicates synergistic effects.

Turning to `CCCC(CCC)C(=O)OCC1(CO)CC(=C(C)C)C(=O)O1` (stereo not drawn) [YSE028], in series [1], the “CD69+ cells in primary T cells (global T cell activation)” value is reported as “less effect”. Further, the “increase in CD8+ PD1+ CD38+ T cells” value in series [2] is “only moderate”. Further, in series [3], the concentration giving a half-maximal response (EC50) was determined as 870 nM. For the same compound, the figures for the caspase-3 activation in the series with U1 cells and in the series with A3.01 cells were 22.7% and 5.81%, respectively. In addition, the survival entry in the series on BALB/c mice is on record as “all of them survived”. The “number of GFP+ cells” value in the series with J-Lat 10.6 cells (J-Lat 10.6 cells, 100–400 nM, 24 h) turned out to be 5.8%. In the series on J-Lat 10.6 cells (J-Lat 10.6 cells, 24 h, GFP-positive cells), the “LRA activity in the presence of 10% mouse serum versus 10% FBS” value is listed as “drastically decreased”. Also, in the series on J-Lat 10.6 cells (J-Lat cells, exposure 1 h, wash-out, analysed after 24 h), the “reactivation after short-term exposure” value is recorded as “successfully reactivated”.

Source of the values: PMC8010149, “A Therapeutic Strategy to Combat HIV-1 Latently Infected Cells With a Combination of Latency-Reversing Agents Containing DAG-Lactone PKC Activators” (Frontiers in Microbiology, 2021).
